Assay results published in ChEMBL document CHEMBL3885881, “DrugMatrix”.

Organism: Rattus norvegicus
Assay: DrugMatrix - Regimen: Daily Repeat
Type: toxicity, organism-based, Sprague-Dawley
Parameters: regimen Daily Repeat, gender Male, age 6-8 weeks
Settings: in vivo, po, route oral GAVAGE, […]; for ABSOLUTE BASOPHIL / ABSOLUTE EOSINOPHIL / ABSOLUTE LYMPHOCYTE / ABSOLUTE MONOCYTE / ABSOLUTE SEGMENTED NEUTROPHIL / BASOPHIL / EOSINOPHIL / ERYTHROCYTE COUNT / HEMATOCRIT / HEMOGLOBIN / LEUKOCYTE COUNT / LYMPHOCYTE / MEAN CORPUSCULAR HEMOGLOBIN / MEAN CORPUSCULAR HEMOGLOBIN CONCENTRATION / MEAN CORPUSCULAR VOLUME / MONOCYTE / NEUTROPHIL / NUCLEATED RED BLOOD CELLS / PLATELET COUNT: tissue Blood; for ALANINE AMINOTRANSFERASE / ALBUMIN / ALKALINE PHOSPHATASE / ASPARTATE AMINOTRANSFERASE / BLOOD UREA NITROGEN / CARBON DIOXIDE / CHLORIDE / CHOLESTEROL / CREATINE PHOSPHOKINASE / CREATININE / GLUCOSE / LACTATE DEHYDROGENASE / LIPASE / PHOSPHORUS / POTASSIUM / SODIUM / TOTAL BILIRUBIN / TOTAL PROTEIN / URIC ACID: tissue Plasma
[1] = 0 mg/kg, 72 h, dose level Control, time 3 day
[2] = 0 mg/kg, 120 h, dose level Control, time 5 day
[3] = 100 mg/kg, 72 h, dose level Low, time 3 day

## CC(=O)Nc1cccc(O)c1 [METACETAMOL]
[1]
  ABSOLUTE BASOPHIL: 0 CELLS/uL
  ABSOLUTE EOSINOPHIL: 0 CELLS/uL
  ABSOLUTE LYMPHOCYTE: 14687.67 CELLS/uL
  ABSOLUTE MONOCYTE: 164 CELLS/uL
  ABSOLUTE SEGMENTED NEUTROPHIL: 1748.33 CELLS/uL
  BASOPHIL: 0%
  EOSINOPHIL: 0%
  ERYTHROCYTE COUNT: 5.51 x10E6/uL
  HEMATOCRIT: 33.68%
  HEMOGLOBIN: 13.4 G/DL
  LEUKOCYTE COUNT: 16.6 x10E3/uL
  LYMPHOCYTE: 88.83%
  MEAN CORPUSCULAR HEMOGLOBIN: 24.47 pg
  MEAN CORPUSCULAR HEMOGLOBIN CONCENTRATION: 39.82 G/DL
  MEAN CORPUSCULAR VOLUME: 61.23 fL
  MONOCYTE: 0.83%
  NEUTROPHIL: 10.33%
  NUCLEATED RED BLOOD CELLS: 0 /100WBC
  PLATELET COUNT: 1329.67 x10E3/uL
  ALANINE AMINOTRANSFERASE: 61.33 u/L
  ALBUMIN: 4.18 G/DL
  ALKALINE PHOSPHATASE: 332.5 u/L
  ASPARTATE AMINOTRANSFERASE: 98.33 u/L
  BLOOD UREA NITROGEN: 15.83 mg/dL
  CARBON DIOXIDE: 27.83 mmol/L
  CHLORIDE: 100 MEQ/L
  CHOLESTEROL: 76.17 mg/dL
  CREATINE PHOSPHOKINASE: 729.17 u/L
  CREATININE: 0.21 mg/dL
  GLUCOSE: 151.83 mg/dL
  LACTATE DEHYDROGENASE: 484.67 u/L
  LIPASE: 10 u/L
  PHOSPHORUS: 11.3 mg/dL
  POTASSIUM: 6.1 MEQ/L
  SODIUM: 142.9 MEQ/L
  TOTAL BILIRUBIN: 0.23 mg/dL
  TOTAL PROTEIN: 5.68 G/DL
  URIC ACID: 1.75 mg/dL
[2]
  ABSOLUTE BASOPHIL: 0 CELLS/uL
  ABSOLUTE EOSINOPHIL: 58.67 CELLS/uL
  ABSOLUTE LYMPHOCYTE: 15950.83 CELLS/uL
  ABSOLUTE MONOCYTE: 172.5 CELLS/uL
  ABSOLUTE SEGMENTED NEUTROPHIL: 2551.33 CELLS/uL
  BASOPHIL: 0%
  EOSINOPHIL: 0.33%
  ERYTHROCYTE COUNT: 5.5 x10E6/uL
  HEMATOCRIT: 34.05%
  HEMOGLOBIN: 13.42 G/DL
  LEUKOCYTE COUNT: 18.73 x10E3/uL
  LYMPHOCYTE: 84.5%
  MEAN CORPUSCULAR HEMOGLOBIN: 24.42 pg
  MEAN CORPUSCULAR HEMOGLOBIN CONCENTRATION: 39.42 G/DL
  MEAN CORPUSCULAR VOLUME: 61.97 fL
  MONOCYTE: 1%
  NEUTROPHIL: 14.17%
  NUCLEATED RED BLOOD CELLS: 0.33 /100WBC
  PLATELET COUNT: 1143.17 x10E3/uL
  ALANINE AMINOTRANSFERASE: 57 u/L
  ALBUMIN: 4.17 G/DL
  ALKALINE PHOSPHATASE: 347.33 u/L
  ASPARTATE AMINOTRANSFERASE: 93.67 u/L
  BLOOD UREA NITROGEN: 15.67 mg/dL
  CARBON DIOXIDE: 27.17 mmol/L
  CHLORIDE: 104.33 MEQ/L
  CHOLESTEROL: 69.5 mg/dL
  CREATINE PHOSPHOKINASE: 317.17 u/L
  CREATININE: 0.2 mg/dL
  GLUCOSE: 162.33 mg/dL
  LACTATE DEHYDROGENASE: 408.67 u/L
  LIPASE: 10.17 u/L
  PHOSPHORUS: 11.08 mg/dL
  POTASSIUM: 6.36 MEQ/L
  SODIUM: 146.07 MEQ/L
  TOTAL BILIRUBIN: 0.22 mg/dL
  TOTAL PROTEIN: 5.92 G/DL
  URIC ACID: 1.47 mg/dL
[3]
  ABSOLUTE BASOPHIL: 0 CELLS/uL
  ABSOLUTE EOSINOPHIL: 56.67 CELLS/uL
  ABSOLUTE LYMPHOCYTE: 16234.67 CELLS/uL
  ABSOLUTE MONOCYTE: 197 CELLS/uL
  ABSOLUTE SEGMENTED NEUTROPHIL: 1911.67 CELLS/uL
  BASOPHIL: 0%
  EOSINOPHIL: 0.33%
  ERYTHROCYTE COUNT: 5.37 x10E6/uL
  HEMATOCRIT: 33.67%
  HEMOGLOBIN: 13.43 G/DL
  LEUKOCYTE COUNT: 18.4 x10E3/uL
  LYMPHOCYTE: 88.33%
  MEAN CORPUSCULAR HEMOGLOBIN: 25 pg
  MEAN CORPUSCULAR HEMOGLOBIN CONCENTRATION: 39.93 G/DL
  MEAN CORPUSCULAR VOLUME: 62.73 fL
  MONOCYTE: 1%
  NEUTROPHIL: 10.33%
  NUCLEATED RED BLOOD CELLS: 0 /100WBC
  PLATELET COUNT: 1217 x10E3/uL
  ALANINE AMINOTRANSFERASE: 68.67 u/L
  ALBUMIN: 4.23 G/DL
  ALKALINE PHOSPHATASE: 369.67 u/L
  ASPARTATE AMINOTRANSFERASE: 101.67 u/L
  BLOOD UREA NITROGEN: 14.67 mg/dL
  CARBON DIOXIDE: 31 mmol/L
  CHLORIDE: 100.67 MEQ/L
  CHOLESTEROL: 76.33 mg/dL
  CREATINE PHOSPHOKINASE: 371.33 u/L
  CREATININE: 0.22 mg/dL
  GLUCOSE: 142.67 mg/dL
  LACTATE DEHYDROGENASE: 561.67 u/L
  LIPASE: 10.33 u/L
  PHOSPHORUS: 11.3 mg/dL
  POTASSIUM: 6.59 MEQ/L
  SODIUM: 143.83 MEQ/L
  TOTAL BILIRUBIN: 0.23 mg/dL
  TOTAL PROTEIN: 5.8 G/DL
  URIC ACID: 1.7 mg/dL
